Data: patent US20190060239A1, “Technology for the Preparation of Microparticles” (Ansun Biopharma, Inc., priority 2007, published 2019)

Legend:
[1] = cited from earlier work
[2] = Microsphere quality score by light microscopy (scoring system of Table 13); format: physicochemical; conditions: for Microsphere Quality: compound 2 mg/ml
Method: For each of the compounds listed in A-D above, and for DAS181, cocktail solutions containing 2 mg/ml of compound dissolved in an aqueous solvent and various counterions, antisolvents and pH, as listed below, were prepared in a 96-well microtiter plate (0.1 ml cocktail/well) at room temperature. Control solutions contained either solvent or antisolvent alone, with or without the counterion. Cocktails were cooled by placing in a freezer. The chilled plates were transferred onto pre-chilled (−45° C.) shelves of a Millrock Lab Series Lyophilizer, and the vacuum was applied. The frozen cocktail solutions were allowed to lyophilize for 16 hours.
The lyophilized powders from the bottoms of the wells were transferred onto glass slides and analyzed by light microscopy for appearance. The quality of the product microspheres was scored based on the uniformity of the microspheres, the absence of undesirable non-microsphere particles (glass-like crystalline forms), and the absence of aggregates.
Arginine was used as counterion and isopropanol was used as antisolvent. Concentrations of each of the cocktail components—the compound, the counterion and the antisolvent—were varied as shown below in Table 15, and the effect on microsphere quality assessed.
Experiments were performed to evaluate the effect of antisolvent and counterion concentration variation on the formation of microspheres. The peptides leuprolide and somatostatin, and the antibiotics vancomycin and tobramycin, were tested under a variety of conditions for forming microspheres. Samples were analyzed in 96-well plates as described in the previous Examples.
The experiments were performed using PGI2 and an analog of PGI2, Ciprostene, at a concentration of 2 mg/ml. Cocktail solutions were mixed at room temperature, then cooled by placing in a freezer. The chilled plates were transferred onto pre-chilled (−45° C.) shelves of a Millrock Lab Series Lyophilizer, and the vacuum was applied. The frozen cocktail solutions were allowed to lyophilize for 16 hours.
Because the resulting prostaglandin microspheres are hygroscopic, upon microsphere initiation, the humidity was maintained at low levels during the experiments, using a nitrogen gas tank attached to the backfill system on the lyophilizer. Each of the reaction tubes was flushed with N2. In addition, the backfill valve on the lyophilizer was left open to continually flush a low humidity atmosphere over the samples. The microscope used to visualize the resulting microspheres was contained within a plastic bag that was continually purged with dry N2. Sample tubes were placed under the bag to equilibrate for approximately 30 seconds, before opening and spreading onto the glass slide.
The compound/counterion/antisolvent conditions were as follows:
Experiments were performed with 200 μl of each of the above cocktail solutions in a 2 ml lyophilization bottle (first flash freeze condition), and 25 μl of each of the above cocktail solutions in a PCR tube (second flash freeze condition). The samples in the lyophilization bottles took approximately 15 seconds to freeze. The samples in the PCR tubes took approximately 3 seconds or less to freeze.
The cocktails in the 96-well plates were cooled by placing in a freezer. The chilled plates were transferred onto pre-chilled (−45° C.) shelves of a Millrock Lab Series Lyophilizer, and a vacuum was applied. The frozen cocktail solutions were allowed to lyophilize for 16 hours.
The lyophilized powders from the bottoms of the wells were transferred onto glass slides and analyzed by light microscopy for appearance.

[3] = Microsphere formation, size and appearance by light microscopy; format: physicochemical; conditions: 2 mg/ml paclitaxel; isopropanol, t-butanol or DMSO with 2 mM Na-citrate buffer pH 5.0
[4] = Bombuwala et. al., Beilstein J. Org. Chem. 2006, 2:13; cited from earlier work

SMILES | API half life ([1]; at physiological pH) | solubility in water / aqueous solutions [1] | Microsphere Quality ([2]; 2 mM Arginine, pH 9, 20% n-propanol, 0% t-butanol) | Microsphere Quality ([2]; 2 mM Arginine, pH 9, 20% n-propanol, 30% t-butanol) | Microsphere Quality ([2]; 2 mM PEI, pH 10.75, 30% n-propanol, 0% t-butanol) | Microsphere Quality ([2]; 2 mM TEA, pH 11, 20% n-propanol, 0% t-butanol) | Microsphere Quality ([2]; 2 mM TEA, pH 11, 20% n-propanol, 5% t-butanol) | Microsphere Quality ([2]; 2 mM TEA, pH 11, 20% n-propanol, 55% t-butanol) | Microsphere Quality ([2]; 2 mM TEA, pH 11, 20% n-propanol, 70% t-butanol) | Microsphere Quality ([2]; 2 mM TEA, pH 11, 30% n-propanol, 0% t-butanol) | appearance after flash freeze ([2]; both flash freeze conditions, Paclitaxel/citrate pH 5.0/90% t-butanol) | organic solvent concentration at which paclitaxel precipitated [3] [%] | log P (log of the octanol/water partition coefficient) [4]
CCCCC[C@H](O)/C=C/[C@@H]1[C@H]2C/C(=C/CCCC(=O)O)O[C@H]2C[C@H]1O [PGI2] | on the order of minutes | higher solubility in water |  |  |  |  |  |  |  |  |  |  | 
CCCCC[C@H](O)/C=C/[C@H]1[C@H](O)C[C@]2(C)C/C(=C\CCCC(=O)O)C[C@H]12 [Ciprostene] |  | not highly soluble in aqueous solutions | 7/8 | 6/7 | 6/7 | 4/5 | 8/7 | 6/7 | 5/6 | 3/4 |  |  | 
CC(=O)O[C@H]1C(=O)[C@@]2(C)[C@H]([C@H](OC(=O)c3ccccc3)[C@]3(O)C[C@H](OC(=O)[C@H](O)[C@@H](NC(=O)c4ccccc4)c4ccccc4)C(C)=C1C3(C)C)[C@]1(OC(C)=O)CO[C@@H]1C[C@@H]2O [Paclitaxel] |  |  |  |  |  |  |  |  |  |  | mostly crystalline | ≤ 25 | higher than 3
